Experimental findings from ChEMBL document CHEMBL1629608, “Variations in amino acid composition of antisense peptide-phosphorodiamidate morpholino oligomer affect potency against Escherichia coli in vitro and in vivo” (Antimicrob Agents Chemother, 2009) are described below.

SMILES strings stand for the structures. Values after ≈ are worked out from the molar mass of the structure shown.

The assay has as its system Escherichia coli. Description: Antibacterial activity against Escherichia coli K-12 W3110 by microdilution method. It is filed as functional. The settings on record: K-12 substr. W3110. (In general: Broth dilution looks for growth in wells or tubes with falling amounts of substance.)
The MIC is the lowest concentration that inhibits growth of the organism. A lower MIC goes with greater potency. Turning to `Cc1cn([C@H]2CN(P(=O)(OC[C@@H]3CN(P(=O)(OC[C@@H]4CN(P(=O)(OC[C@@H]5CN(P(=O)(OC[C@@H]6CN(P(=O)(OC[C@@H]7CN(P(=O)(OC[C@@H]8CN(P(=O)(OC[C@@H]9CN(P(=O)(OC[C@@H]%10CNC[C@H](n%11cnc%12c(=O)[nH]c(N)nc%12%11)O%10)N(C)C)C[C@H](n%10cc(C)c(=O)[nH]c%10=O)O9)N(C)C)C[C@H](n9cnc%10c(=O)[nH]c(N)nc%109)O8)N(C)C)C[C@H](n8cnc9c(N)ncnc98)O7)N(C)C)C[C@H](n7cc(C)c(=O)[nH]c7=O)O6)N(C)C)C[C@H](n6cnc7c(N)ncnc76)O5)N(C)C)C[C@H](n5cnc6c(=O)[nH]c(N)nc65)O4)N(C)C)C[C@H](n4ccc(N)nc4=O)O3)N(C)C)C[C@@H](COP(=O)(N(C)C)N3C[C@@H](COP(=O)(N(C)C)N4C[C@@H](COP(=O)(N(C)C)N5CCN(C(=O)CCNC(=O)CCCCCNC(=O)[C@H](CCCNC(=N)N)NC(=O)CCCCCNC(=O)[C@H](CCCNC(=N)N)NC(=O)CCCCCNC(=O)[C@H](CCCNC(=N)N)NC(=O)CCCCCNC(=O)[C@@H](N)CCCNC(=N)N)CC5)O[C@@H](n5ccc(N)nc5=O)C4)O[C@@H](n4cc(C)c(=O)[nH]c4=O)C3)O2)c(=O)[nH]c1=O` (stereo partly drawn), 80 µM (≈ 394 µg/mL) was the least that counted as inhibitory (MIC). In other words, the double-digit micromolar range.

Consider `Cc1cn([C@H]2CN(P(=O)(OC[C@@H]3CN(P(=O)(OC[C@@H]4CN(P(=O)(OC[C@@H]5CN(P(=O)(OC[C@@H]6CN(P(=O)(OC[C@@H]7CN(P(=O)(OC[C@@H]8CN(P(=O)(OC[C@@H]9CN(P(=O)(OC[C@@H]%10CNC[C@H](n%11cnc%12c(=O)[nH]c(N)nc%12%11)O%10)N(C)C)C[C@H](n%10cc(C)c(=O)[nH]c%10=O)O9)N(C)C)C[C@H](n9cnc%10c(=O)[nH]c(N)nc%109)O8)N(C)C)C[C@H](n8cnc9c(N)ncnc98)O7)N(C)C)C[C@H](n7cc(C)c(=O)[nH]c7=O)O6)N(C)C)C[C@H](n6cnc7c(N)ncnc76)O5)N(C)C)C[C@H](n5cnc6c(=O)[nH]c(N)nc65)O4)N(C)C)C[C@H](n4ccc(N)nc4=O)O3)N(C)C)C[C@@H](COP(=O)(N(C)C)N3C[C@@H](COP(=O)(N(C)C)N4C[C@@H](COP(=O)(N(C)C)N5CCN(C(=O)CCNC(=O)CCCCCNC(=O)[C@H](CCCNC(=N)N)NC(=O)CCNC(=O)CCNC(=O)[C@H](CCCNC(=N)N)NC(=O)CCNC(=O)CCNC(=O)[C@H](CCCNC(=N)N)NC(=O)CCNC(=O)CCNC(=O)[C@@H](N)CCCNC(=N)N)CC5)O[C@@H](n5ccc(N)nc5=O)C4)O[C@@H](n4cc(C)c(=O)[nH]c4=O)C3)O2)c(=O)[nH]c1=O` (stereo partly drawn), for which the MIC is above 80 µM.

Take `Cc1cn([C@H]2CN(P(=O)(OC[C@@H]3CN(P(=O)(OC[C@@H]4CN(P(=O)(OC[C@@H]5CN(P(=O)(OC[C@@H]6CN(P(=O)(OC[C@@H]7CN(P(=O)(OC[C@@H]8CN(P(=O)(OC[C@@H]9CN(P(=O)(OC[C@@H]%10CNC[C@H](n%11cnc%12c(=O)[nH]c(N)nc%12%11)O%10)N(C)C)C[C@H](n%10cc(C)c(=O)[nH]c%10=O)O9)N(C)C)C[C@H](n9cnc%10c(=O)[nH]c(N)nc%109)O8)N(C)C)C[C@H](n8cnc9c(N)ncnc98)O7)N(C)C)C[C@H](n7cc(C)c(=O)[nH]c7=O)O6)N(C)C)C[C@H](n6cnc7c(N)ncnc76)O5)N(C)C)C[C@H](n5cnc6c(=O)[nH]c(N)nc65)O4)N(C)C)C[C@H](n4ccc(N)nc4=O)O3)N(C)C)C[C@@H](COP(=O)(N(C)C)N3C[C@@H](COP(=O)(N(C)C)N4C[C@@H](COP(=O)(N(C)C)N5CCN(C(=O)CCNC(=O)CCCCCNC(=O)[C@@H](N)CCCNC(=O)CCCCCNC(=O)[C@@H](N)CCCNC(=O)[C@@H](N)CCCNC(=O)CCCCCNC(=O)[C@@H](N)CCCNC(=O)[C@@H](N)CCCNC(=O)CCCCCNC(=O)[C@@H](N)CCCNC(=O)[C@@H](N)CCCNC(=O)CCCCCNC(=O)[C@@H](N)CCCN)CC5)O[C@@H](n5ccc(N)nc5=O)C4)O[C@@H](n4cc(C)c(=O)[nH]c4=O)C3)O2)c(=O)[nH]c1=O` (stereo partly drawn): the MIC came to 10 µM (≈ 53.3 µg/mL).

For `Cc1cn([C@H]2CN(P(=O)(OC[C@@H]3CN(P(=O)(OC[C@@H]4CN(P(=O)(OC[C@@H]5CN(P(=O)(OC[C@@H]6CN(P(=O)(OC[C@@H]7CN(P(=O)(OC[C@@H]8CN(P(=O)(OC[C@@H]9CN(P(=O)(OC[C@@H]%10CNC[C@H](n%11cnc%12c(=O)[nH]c(N)nc%12%11)O%10)N(C)C)C[C@H](n%10cc(C)c(=O)[nH]c%10=O)O9)N(C)C)C[C@H](n9cnc%10c(=O)[nH]c(N)nc%109)O8)N(C)C)C[C@H](n8cnc9c(N)ncnc98)O7)N(C)C)C[C@H](n7cc(C)c(=O)[nH]c7=O)O6)N(C)C)C[C@H](n6cnc7c(N)ncnc76)O5)N(C)C)C[C@H](n5cnc6c(=O)[nH]c(N)nc65)O4)N(C)C)C[C@H](n4ccc(N)nc4=O)O3)N(C)C)C[C@@H](COP(=O)(N(C)C)N3C[C@@H](COP(=O)(N(C)C)N4C[C@@H](COP(=O)(N(C)C)N5CCN(C(=O)CCNC(=O)CCCCCNC(=O)[C@H](Cc6ccccc6)NC(=O)[C@H](Cc6ccccc6)NC(=O)[C@H](CCCNC(=N)N)NC(=O)[C@H](Cc6ccccc6)NC(=O)[C@H](Cc6ccccc6)NC(=O)[C@@H](N)CCCNC(=N)N)CC5)O[C@@H](n5ccc(N)nc5=O)C4)O[C@@H](n4cc(C)c(=O)[nH]c4=O)C3)O2)c(=O)[nH]c1=O` (stereo partly drawn), inhibition of growth (MIC) required 20 µM (≈ 97.4 µg/mL).

`Cc1cn([C@H]2CN(P(=O)(OC[C@@H]3CN(P(=O)(OC[C@@H]4CN(P(=O)(OC[C@@H]5CN(P(=O)(OC[C@@H]6CN(P(=O)(OC[C@@H]7CN(P(=O)(OC[C@@H]8CN(P(=O)(OC[C@@H]9CN(P(=O)(OC[C@@H]%10CNC[C@H](n%11cnc%12c(=O)[nH]c(N)nc%12%11)O%10)N(C)C)C[C@H](n%10cc(C)c(=O)[nH]c%10=O)O9)N(C)C)C[C@H](n9cnc%10c(=O)[nH]c(N)nc%109)O8)N(C)C)C[C@H](n8cnc9c(N)ncnc98)O7)N(C)C)C[C@H](n7cc(C)c(=O)[nH]c7=O)O6)N(C)C)C[C@H](n6cnc7c(N)ncnc76)O5)N(C)C)C[C@H](n5cnc6c(=O)[nH]c(N)nc65)O4)N(C)C)C[C@H](n4ccc(N)nc4=O)O3)N(C)C)C[C@@H](COP(=O)(N(C)C)N3C[C@@H](COP(=O)(N(C)C)N4C[C@@H](COP(=O)(N(C)C)N5CCN(C(=O)CCNC(=O)CCCCCNC(=O)[C@H](CCCNC(=N)N)NC(=O)CCCCCNC(=O)[C@@H](N)CCCNC(=N)N)CC5)O[C@@H](n5ccc(N)nc5=O)C4)O[C@@H](n4cc(C)c(=O)[nH]c4=O)C3)O2)c(=O)[nH]c1=O` (stereo partly drawn) yielded an MIC above 80 µM.

`Cc1cn([C@H]2CN(P(=O)(OC[C@@H]3CN(P(=O)(OC[C@@H]4CN(P(=O)(OC[C@@H]5CN(P(=O)(OC[C@@H]6CN(P(=O)(OC[C@@H]7CN(P(=O)(OC[C@@H]8CN(P(=O)(OC[C@@H]9CN(P(=O)(OC[C@@H]%10CNC[C@H](n%11cnc%12c(=O)[nH]c(N)nc%12%11)O%10)N(C)C)C[C@H](n%10cc(C)c(=O)[nH]c%10=O)O9)N(C)C)C[C@H](n9cnc%10c(=O)[nH]c(N)nc%109)O8)N(C)C)C[C@H](n8cnc9c(N)ncnc98)O7)N(C)C)C[C@H](n7cc(C)c(=O)[nH]c7=O)O6)N(C)C)C[C@H](n6cnc7c(N)ncnc76)O5)N(C)C)C[C@H](n5cnc6c(=O)[nH]c(N)nc65)O4)N(C)C)C[C@H](n4ccc(N)nc4=O)O3)N(C)C)C[C@@H](COP(=O)(N(C)C)N3C[C@@H](COP(=O)(N(C)C)N4C[C@@H](COP(=O)(N(C)C)N5CCN(C(=O)CCNC(=O)CCCCCNC(=O)[C@@H](N)CCCNC(=O)CCCCCNC(=O)[C@@H](N)CCCNC(=O)CCCCCNC(=O)[C@@H](N)CCCNC(=O)CCCCCNC(=O)[C@@H](N)CCCNC(=O)CCCCCNC(=O)[C@@H](N)CCCNC(=O)CCCCCNC(=O)[C@@H](N)CCCN)CC5)O[C@@H](n5ccc(N)nc5=O)C4)O[C@@H](n4cc(C)c(=O)[nH]c4=O)C3)O2)c(=O)[nH]c1=O` (stereo partly drawn) gave an MIC above 80 µM.

The compound `Cc1cn([C@H]2CN(P(=O)(OC[C@@H]3CN(P(=O)(OC[C@@H]4CN(P(=O)(OC[C@@H]5CN(P(=O)(OC[C@@H]6CN(P(=O)(OC[C@@H]7CN(P(=O)(OC[C@@H]8CN(P(=O)(OC[C@@H]9CN(P(=O)(OC[C@@H]%10CNC[C@H](n%11cnc%12c(=O)[nH]c(N)nc%12%11)O%10)N(C)C)C[C@H](n%10cc(C)c(=O)[nH]c%10=O)O9)N(C)C)C[C@H](n9cnc%10c(=O)[nH]c(N)nc%109)O8)N(C)C)C[C@H](n8cnc9c(N)ncnc98)O7)N(C)C)C[C@H](n7cc(C)c(=O)[nH]c7=O)O6)N(C)C)C[C@H](n6cnc7c(N)ncnc76)O5)N(C)C)C[C@H](n5cnc6c(=O)[nH]c(N)nc65)O4)N(C)C)C[C@H](n4ccc(N)nc4=O)O3)N(C)C)C[C@@H](COP(=O)(N(C)C)N3C[C@@H](COP(=O)(N(C)C)N4C[C@@H](COP(=O)(N(C)C)N5CCN(C(=O)CCNC(=O)CCCCCNC(=O)[C@H](CCCCN)NC(=O)CCCCNC(=O)[C@H](CCCCN)NC(=O)[C@H](CCCCN)NC(=O)CCCCNC(=O)[C@H](CCCCN)NC(=O)[C@H](CCCCN)NC(=O)CCCCNC(=O)[C@H](CCCCN)NC(=O)[C@H](CCCCN)NC(=O)CCCCNC(=O)[C@@H](N)CCCCN)CC5)O[C@@H](n5ccc(N)nc5=O)C4)O[C@@H](n4cc(C)c(=O)[nH]c4=O)C3)O2)c(=O)[nH]c1=O` (stereo partly drawn) returned an MIC of 20 µM (≈ 108 µg/mL).

`Cc1cn([C@H]2CN(P(=O)(OC[C@@H]3CN(P(=O)(OC[C@@H]4CN(P(=O)(OC[C@@H]5CN(P(=O)(OC[C@@H]6CN(P(=O)(OC[C@@H]7CN(P(=O)(OC[C@@H]8CN(P(=O)(OC[C@@H]9CN(P(=O)(OC[C@@H]%10CNC[C@H](n%11cnc%12c(=O)[nH]c(N)nc%12%11)O%10)N(C)C)C[C@H](n%10cc(C)c(=O)[nH]c%10=O)O9)N(C)C)C[C@H](n9cnc%10c(=O)[nH]c(N)nc%109)O8)N(C)C)C[C@H](n8cnc9c(N)ncnc98)O7)N(C)C)C[C@H](n7cc(C)c(=O)[nH]c7=O)O6)N(C)C)C[C@H](n6cnc7c(N)ncnc76)O5)N(C)C)C[C@H](n5cnc6c(=O)[nH]c(N)nc65)O4)N(C)C)C[C@H](n4ccc(N)nc4=O)O3)N(C)C)C[C@@H](COP(=O)(N(C)C)N3C[C@@H](COP(=O)(N(C)C)N4C[C@@H](COP(=O)(N(C)C)N5CCN(C(=O)CCNC(=O)CCCCCNC(=O)[C@H](CCCCN)NC(=O)CCCCCNC(=O)[C@H](CCCCN)NC(=O)CCCCCNC(=O)[C@H](CCCCN)NC(=O)CCCCCNC(=O)[C@H](CCCCN)NC(=O)CCCCCNC(=O)[C@H](CCCCN)NC(=O)CCCCCNC(=O)[C@@H](N)CCCCN)CC5)O[C@@H](n5ccc(N)nc5=O)C4)O[C@@H](n4cc(C)c(=O)[nH]c4=O)C3)O2)c(=O)[nH]c1=O` (stereo partly drawn) returned an MIC above 80 µM.
